Test results reported in patent US20130072474A1, “TREATMENT OF DEMENTIA OF ALZHEIMER'S TYPE WITH MASITINIB” (AB SCIENCE, priority 2010, published 2013).

Key:
ABL = ABL (Homo sapiens, UniProt P00519); settings: at therapeutic doses of masitinib; cited from earlier work
Src = Src (Homo sapiens, UniProt P12931); settings: at therapeutic doses of masitinib; cited from earlier work
[1] = tested on: patients suffering from mild to moderate dementia of Alzheimer's type; experiment: Phase 2 study, CDR; type: in vivo, human; settings: for CDR No change, rate of patients / CDR Response (Decrease >0), rate of patients / CDR Worsening (Increase >0), rate of patients / CDR score 0, rate of patients / CDR score 0.5, rate of patients / CDR score 1, rate of patients / CDR score 2, rate of patients / CDR score 3, rate of patients: ITT population, Observed Cases
Source text: (§1) A multicenter, randomized, double-blind, placebo-controlled, parallel-group phase 2 study evaluating the activity of masitinib given orally for 24 weeks has been performed in patients suffering from mild to moderate dementia of Alzheimer's type (protocol period completed, extension ongoing).
(§2) Patients: Patients enrolled in this study had dementia of Alzheimer's type (according to DSM IV criteria), probable Alzheimer's disease according to NINCDS-ADRDA criteria, MMSE≧12 and ≦26, and CDR of 1 or 2. […] Exclusion criteria included inadequate organ function (defined via blood test levels), dementia due to any other causes, uncontrolled depression, psychosis, delusions or delirium.
(§3) Treatment: In addition to a stable dose of acetylcholinesterase inhibitors and/or memantine, patients received masitinib or placebo, supplied as 100 and 200 mg tablets, per os for 24 weeks. Patients received masitinib or placebo initially at a daily total dose of 3 mg/kg or 6 mg/kg, administered twice daily with meals. Dose could be increased or decreased by 1.5 mg/kg/day depending on efficacy and toxicity assessments. Five patients were allocated to each masitinib dose for every three placebo patients. Treatment with any registered or putative cognitive enhancer or disease modifier (other than donepezil, galantamine, rivastigmine or memantine), or any investigational therapies was not allowed.
CDR: The CDR is a five-point categorical rating evaluating severity of dementia. The 5-point score is useful for globally staging the level of impairment: 0=No impairment, 0.5, 1, 2, and 3 indicate very mild, mild, moderate and severe dementia respectively, in the following six areas: memory, orientation, judgment, community affairs, home and hobbies, and personal care (Morris J C, 1997).
(§4) Statistical analyses: Efficacy was analyzed in the intent-to-treat (ITT) (all randomized patients, according to group of randomization) and per protocol (PP) (all patients without a major protocol deviation) populations. […] Efficacy criteria were analyzed using descriptive statistics, numbers and rates for categorical and discontinuous variables, parametric and non-parametric distribution elements for continuous variables.
(§5) Results are presented for the ITT population in the OC dataset (with LOCF for Centre #21 at Week 24).
The overall CDR score, calculated through the use of an algorithm, is useful for characterizing and tracking a patient's level of impairment/dementia: 0=Normal, 0.5=Very Mild Dementia, 1=Mild Dementia, 2=Moderate Dementia, 3=Severe Dementia.

[2] = tested on: patients suffering from mild to moderate dementia of Alzheimer's type; experiment: Phase 2 study, CIBIC-plus (global clinical assessment); type: in vivo, human; settings: Observed Cases, ITT population
Source text: as §1, §2, §3
CIBIC-plus: Clinician's Interview Based Impression of Change, requires assessment by a skilled clinician based on his/her observation at an interview with the patient, in combination with information supplied by a caregiver familiar with the behavior of the patient over the interval rated.
as §4, §5

Sequence of Src (P12931 whole entry): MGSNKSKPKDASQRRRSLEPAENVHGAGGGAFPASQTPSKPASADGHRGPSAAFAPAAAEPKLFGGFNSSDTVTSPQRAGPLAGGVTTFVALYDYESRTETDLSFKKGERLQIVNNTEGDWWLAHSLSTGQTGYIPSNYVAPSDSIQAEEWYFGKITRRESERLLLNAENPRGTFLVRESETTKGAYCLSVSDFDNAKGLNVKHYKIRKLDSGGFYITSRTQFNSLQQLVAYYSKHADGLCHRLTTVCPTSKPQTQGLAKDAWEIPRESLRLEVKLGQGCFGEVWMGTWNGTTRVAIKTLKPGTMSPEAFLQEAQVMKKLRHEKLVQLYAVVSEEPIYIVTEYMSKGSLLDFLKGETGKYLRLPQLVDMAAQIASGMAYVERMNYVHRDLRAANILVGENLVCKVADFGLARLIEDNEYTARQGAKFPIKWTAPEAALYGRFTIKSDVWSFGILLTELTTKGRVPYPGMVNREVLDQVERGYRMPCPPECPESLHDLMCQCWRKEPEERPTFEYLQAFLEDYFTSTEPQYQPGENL
Sequence of ABL (P00519 whole entry): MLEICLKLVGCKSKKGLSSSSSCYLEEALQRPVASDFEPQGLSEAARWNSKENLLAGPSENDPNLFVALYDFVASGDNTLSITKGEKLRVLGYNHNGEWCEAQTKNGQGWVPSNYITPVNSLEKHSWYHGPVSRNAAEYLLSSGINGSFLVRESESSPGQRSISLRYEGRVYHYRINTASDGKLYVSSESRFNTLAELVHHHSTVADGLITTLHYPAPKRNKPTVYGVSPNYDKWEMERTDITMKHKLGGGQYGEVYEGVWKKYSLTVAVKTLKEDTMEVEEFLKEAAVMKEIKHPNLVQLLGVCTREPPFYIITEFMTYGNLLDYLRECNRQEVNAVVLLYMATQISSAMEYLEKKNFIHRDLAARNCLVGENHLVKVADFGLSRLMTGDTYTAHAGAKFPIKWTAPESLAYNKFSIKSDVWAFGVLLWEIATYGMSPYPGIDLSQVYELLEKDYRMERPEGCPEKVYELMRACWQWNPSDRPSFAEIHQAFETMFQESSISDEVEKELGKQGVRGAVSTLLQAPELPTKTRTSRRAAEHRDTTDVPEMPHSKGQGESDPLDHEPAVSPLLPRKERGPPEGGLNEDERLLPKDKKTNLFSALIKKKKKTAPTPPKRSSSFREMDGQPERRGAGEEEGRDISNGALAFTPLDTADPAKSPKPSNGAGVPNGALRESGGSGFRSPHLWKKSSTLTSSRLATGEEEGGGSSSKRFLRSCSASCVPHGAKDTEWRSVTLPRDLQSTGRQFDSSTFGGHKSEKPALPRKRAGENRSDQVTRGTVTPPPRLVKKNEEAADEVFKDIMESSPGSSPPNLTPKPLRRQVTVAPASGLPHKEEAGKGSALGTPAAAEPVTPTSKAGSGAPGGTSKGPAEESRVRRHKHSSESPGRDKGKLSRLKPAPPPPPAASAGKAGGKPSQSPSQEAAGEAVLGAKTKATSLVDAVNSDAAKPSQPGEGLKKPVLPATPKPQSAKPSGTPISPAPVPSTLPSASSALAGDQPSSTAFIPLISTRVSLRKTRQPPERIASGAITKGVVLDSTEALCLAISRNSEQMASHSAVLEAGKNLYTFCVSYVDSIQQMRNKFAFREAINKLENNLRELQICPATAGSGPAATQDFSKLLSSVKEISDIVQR

Cc1ccc(NC(=O)c2ccc(CN3CCN(C)CC3)cc2)cc1Nc1nc(-c2cccnc2)cs1 [masitinib, 4-(4-methylpiperazin-1-ylmethyl)-N-[4-methyl-3-(4-pyridin-3ylthiazol-2-ylamino)phenyl]benzamide]
inhibition of ABL (ABL): not inhibited at therapeutic doses
inhibition of Src (Src): not inhibited at therapeutic doses
CDR No change, rate of patients ([1]; W 4): 9 (90.0%)
CDR Response (Decrease >0), rate of patients ([1]; W 4): 0 (0.0%)
CDR Worsening (Increase >0), rate of patients ([1]; W 4): 1 (10.0%)
CDR score 0, rate of patients ([1]; W 4): 0 (0.0%)
CDR score 0.5, rate of patients ([1]; W 4): 0 (0.0%)
CDR score 1, rate of patients ([1]; W 4): 7 (70.0%)
CDR score 2, rate of patients ([1]; W 4): 3 (30.0%)
CDR score 3, rate of patients ([1]; W 4): 0 (0.0%)
CDR No change, rate of patients ([1]; W 8): 7 (87.5%)
CDR Response (Decrease >0), rate of patients ([1]; W 8): 0 (0.0%)
CDR Worsening (Increase >0), rate of patients ([1]; W 8): 1 (12.5%)
CDR score 0, rate of patients ([1]; W 8): 0 (0.0%)
CDR score 0.5, rate of patients ([1]; W 8): 0 (0.0%)
CDR score 1, rate of patients ([1]; W 8): 6 (75.0%)
CDR score 2, rate of patients ([1]; W 8): 2 (25.0%)
CDR score 3, rate of patients ([1]; W 8): 0 (0.0%)
CDR No change, rate of patients ([1]; W 12): 14 (82.4%)
CDR Response (Decrease >0), rate of patients ([1]; W 12): 2 (11.8%)
CDR Worsening (Increase >0), rate of patients ([1]; W 12): 1 (5.9%)
CDR score 0, rate of patients ([1]; W 12): 0 (0.0%)
CDR score 0.5, rate of patients ([1]; W 12): 1 (5.9%)
CDR score 1, rate of patients ([1]; W 12): 15 (88.2%)
CDR score 2, rate of patients ([1]; W 12): 1 (5.9%)
CDR score 3, rate of patients ([1]; W 12): 0 (0.0%)
CDR No change, rate of patients ([1]; W 24): 6 (66.7%)
CDR Response (Decrease >0), rate of patients ([1]; W 24): 2 (22.2%)
CDR Worsening (Increase >0), rate of patients ([1]; W 24): 1 (11.1%)
CDR score 0, rate of patients ([1]; W 24): 0 (0.0%)
CDR score 0.5, rate of patients ([1]; W 24): 2 (22.2%)
CDR score 1, rate of patients ([1]; W 24): 6 (66.7%)
CDR score 2, rate of patients ([1]; W 24): 1 (11.1%)
CDR score 3, rate of patients ([1]; W 24): 0 (0.0%)
CDR No change, rate of patients ([1]; W 24 LOCF center 21): 12 (75.0%)
CDR Response (Decrease >0), rate of patients ([1]; W 24 LOCF center 21): 3 (18.8%)
CDR Worsening (Increase >0), rate of patients ([1]; W 24 LOCF center 21): 6.3%
CDR score 0, rate of patients ([1]; W 24 LOCF center 21): 0 (0.0%)
CDR score 0.5, rate of patients ([1]; W 24 LOCF center 21): 2 (12.5%)
CDR score 1, rate of patients ([1]; W 24 LOCF center 21): 13 (81.3%)
CDR score 2, rate of patients ([1]; W 24 LOCF center 21): 1 (6.3%)
CDR score 3, rate of patients ([1]; W 24 LOCF center 21): 0 (0.0%)
CDR Worsening (Increase >0), rate of patients ([1]; W 24 LOCF center 21, listed as AB1010): 1 (6.3%)
Frequency of patients with CDR Score 0.5-1 ([1]; Week 24): 94%
CIBIC-plus No change (CIBIC = 4), rate of patients ([2]; W 4): 16 (66.7%)
CIBIC-plus Response (CIBIC in [1-3]), rate of patients ([2]; W 4): 4 (16.7%)
CIBIC-plus Worsening (CIBIC in [5-7]), rate of patients ([2]; W 4): 4 (16.7%)
CIBIC-plus No change (CIBIC = 4), rate of patients ([2]; W 8): 16 (84.2%)
CIBIC-plus Response (CIBIC in [1-3]), rate of patients ([2]; W 8): 2 (10.5%)
CIBIC-plus Worsening (CIBIC in [5-7]), rate of patients ([2]; W 8): 1 (5.3%)
CIBIC-plus No change (CIBIC = 4), rate of patients ([2]; W 12): 14 (82.4%)
CIBIC-plus Response (CIBIC in [1-3]), rate of patients ([2]; W 12): 1 (5.9%)
CIBIC-plus Worsening (CIBIC in [5-7]), rate of patients ([2]; W 12): 12%
CIBIC-plus Worsening (CIBIC in [5-7]), rate of patients ([2]; W 12, listed as AB1010): 2 (11.8%)
CIBIC-plus No change (CIBIC = 4), rate of patients ([2]; W 24): 5 (55.6%)
CIBIC-plus Response (CIBIC in [1-3]), rate of patients ([2]; W 24): 2 (22.2%)
CIBIC-plus Worsening (CIBIC in [5-7]), rate of patients ([2]; W 24): 2 (22.2%)
CIBIC-plus No change (CIBIC = 4), rate of patients ([2]; W 24 LOCF center 21): 12 (75.0%)
CIBIC-plus Response (CIBIC in [1-3]), rate of patients ([2]; W 24 LOCF center 21): 2 (12.5%)
CIBIC-plus Worsening (CIBIC in [5-7]), rate of patients ([2]; W 24 LOCF center 21): 2 (12.5%)
